According to ChEMBL document CHEMBL3991601, “The target landscape of clinical kinase drugs” (Science, 2017):
Calls of active or inactive are those of the source.

Experiments:
[1] = biological target: T1, Acyl-CoA dehydrogenase family member 11 (Homo sapiens, UniProt Q709F0)
T1 sequence (Q709F0 whole entry): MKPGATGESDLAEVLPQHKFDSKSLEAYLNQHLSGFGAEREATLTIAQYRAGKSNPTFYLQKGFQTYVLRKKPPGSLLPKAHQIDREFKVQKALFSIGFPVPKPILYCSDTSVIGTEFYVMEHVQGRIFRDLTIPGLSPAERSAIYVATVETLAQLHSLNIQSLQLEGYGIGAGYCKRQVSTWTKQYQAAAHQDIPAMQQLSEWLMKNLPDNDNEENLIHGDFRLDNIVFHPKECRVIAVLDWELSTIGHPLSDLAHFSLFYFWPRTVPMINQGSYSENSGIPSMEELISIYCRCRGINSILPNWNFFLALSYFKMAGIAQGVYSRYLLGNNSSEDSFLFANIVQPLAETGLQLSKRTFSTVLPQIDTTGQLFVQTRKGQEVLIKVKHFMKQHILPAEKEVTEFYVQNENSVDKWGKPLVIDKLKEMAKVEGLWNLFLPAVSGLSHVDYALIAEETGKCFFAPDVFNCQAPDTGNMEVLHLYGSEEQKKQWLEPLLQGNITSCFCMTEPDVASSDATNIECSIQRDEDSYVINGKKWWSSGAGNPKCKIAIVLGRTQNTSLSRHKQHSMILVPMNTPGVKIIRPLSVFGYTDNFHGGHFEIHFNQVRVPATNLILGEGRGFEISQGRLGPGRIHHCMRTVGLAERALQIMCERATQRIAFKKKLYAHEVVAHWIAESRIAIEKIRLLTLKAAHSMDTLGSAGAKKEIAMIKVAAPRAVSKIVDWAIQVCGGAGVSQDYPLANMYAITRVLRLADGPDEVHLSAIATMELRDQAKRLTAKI

[2] = biological target: T2, Exosome RNA helicase MTR4 (Homo sapiens, UniProt P42285)
T2 sequence (P42285 whole entry): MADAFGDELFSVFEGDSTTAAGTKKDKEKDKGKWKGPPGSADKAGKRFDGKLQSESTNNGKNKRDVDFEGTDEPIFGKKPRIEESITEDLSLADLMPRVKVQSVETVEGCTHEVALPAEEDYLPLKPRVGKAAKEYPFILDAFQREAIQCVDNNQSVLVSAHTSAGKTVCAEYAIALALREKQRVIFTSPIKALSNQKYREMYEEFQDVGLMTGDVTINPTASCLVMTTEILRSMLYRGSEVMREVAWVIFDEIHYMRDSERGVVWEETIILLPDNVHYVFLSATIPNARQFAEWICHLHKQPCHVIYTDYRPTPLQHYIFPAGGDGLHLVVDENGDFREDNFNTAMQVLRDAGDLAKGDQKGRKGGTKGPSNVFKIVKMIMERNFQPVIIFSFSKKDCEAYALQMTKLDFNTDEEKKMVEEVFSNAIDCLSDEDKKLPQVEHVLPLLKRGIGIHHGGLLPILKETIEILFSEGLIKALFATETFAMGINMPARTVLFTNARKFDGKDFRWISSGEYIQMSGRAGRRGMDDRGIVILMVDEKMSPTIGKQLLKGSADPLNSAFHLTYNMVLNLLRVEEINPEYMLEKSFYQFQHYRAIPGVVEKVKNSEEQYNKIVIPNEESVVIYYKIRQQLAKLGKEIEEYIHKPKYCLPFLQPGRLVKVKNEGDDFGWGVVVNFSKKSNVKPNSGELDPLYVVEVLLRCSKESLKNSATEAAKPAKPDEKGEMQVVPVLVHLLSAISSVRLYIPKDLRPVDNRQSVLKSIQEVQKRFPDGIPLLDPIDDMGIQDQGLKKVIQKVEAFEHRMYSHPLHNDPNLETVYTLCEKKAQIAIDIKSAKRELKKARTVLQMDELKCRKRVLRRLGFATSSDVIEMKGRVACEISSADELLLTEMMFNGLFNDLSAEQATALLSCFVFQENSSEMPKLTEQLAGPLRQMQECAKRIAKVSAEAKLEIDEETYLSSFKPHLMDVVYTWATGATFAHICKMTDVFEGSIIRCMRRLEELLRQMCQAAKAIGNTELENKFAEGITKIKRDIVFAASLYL

[3] = biological target: Protein kinase C alpha type (Homo sapiens, UniProt P17252)
[4] = biological target: Rho-associated protein kinase 2 (Homo sapiens, UniProt O75116)
[5] = biological target: T3, cGMP-dependent protein kinase 1 (Homo sapiens, UniProt Q13976)
T3 sequence (Q13976 whole entry): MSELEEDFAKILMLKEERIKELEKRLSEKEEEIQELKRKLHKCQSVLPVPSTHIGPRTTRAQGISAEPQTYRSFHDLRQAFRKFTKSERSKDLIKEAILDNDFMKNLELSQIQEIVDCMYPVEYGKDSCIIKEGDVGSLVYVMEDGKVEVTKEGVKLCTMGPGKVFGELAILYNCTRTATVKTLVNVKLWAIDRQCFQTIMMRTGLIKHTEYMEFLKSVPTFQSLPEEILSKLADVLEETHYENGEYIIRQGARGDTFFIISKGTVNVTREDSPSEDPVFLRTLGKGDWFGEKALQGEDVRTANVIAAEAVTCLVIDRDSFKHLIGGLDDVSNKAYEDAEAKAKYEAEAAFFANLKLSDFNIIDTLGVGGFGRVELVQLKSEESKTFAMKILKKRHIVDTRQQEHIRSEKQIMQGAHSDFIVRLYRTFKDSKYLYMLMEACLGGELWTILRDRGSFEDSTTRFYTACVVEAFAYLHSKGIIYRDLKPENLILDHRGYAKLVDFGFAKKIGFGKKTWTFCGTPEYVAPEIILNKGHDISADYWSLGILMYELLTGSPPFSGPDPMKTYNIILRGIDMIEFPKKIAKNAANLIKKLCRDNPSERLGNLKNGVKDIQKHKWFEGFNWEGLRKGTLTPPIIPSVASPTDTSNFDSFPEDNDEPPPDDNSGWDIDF

[6] = biological target: Mitogen-activated protein kinase 7 (Homo sapiens, UniProt Q13164)
Also: in the data inactive means no Kd found up to 30 µM.

Chain of Mitogen-activated protein kinase 7 (Q13164 whole entry): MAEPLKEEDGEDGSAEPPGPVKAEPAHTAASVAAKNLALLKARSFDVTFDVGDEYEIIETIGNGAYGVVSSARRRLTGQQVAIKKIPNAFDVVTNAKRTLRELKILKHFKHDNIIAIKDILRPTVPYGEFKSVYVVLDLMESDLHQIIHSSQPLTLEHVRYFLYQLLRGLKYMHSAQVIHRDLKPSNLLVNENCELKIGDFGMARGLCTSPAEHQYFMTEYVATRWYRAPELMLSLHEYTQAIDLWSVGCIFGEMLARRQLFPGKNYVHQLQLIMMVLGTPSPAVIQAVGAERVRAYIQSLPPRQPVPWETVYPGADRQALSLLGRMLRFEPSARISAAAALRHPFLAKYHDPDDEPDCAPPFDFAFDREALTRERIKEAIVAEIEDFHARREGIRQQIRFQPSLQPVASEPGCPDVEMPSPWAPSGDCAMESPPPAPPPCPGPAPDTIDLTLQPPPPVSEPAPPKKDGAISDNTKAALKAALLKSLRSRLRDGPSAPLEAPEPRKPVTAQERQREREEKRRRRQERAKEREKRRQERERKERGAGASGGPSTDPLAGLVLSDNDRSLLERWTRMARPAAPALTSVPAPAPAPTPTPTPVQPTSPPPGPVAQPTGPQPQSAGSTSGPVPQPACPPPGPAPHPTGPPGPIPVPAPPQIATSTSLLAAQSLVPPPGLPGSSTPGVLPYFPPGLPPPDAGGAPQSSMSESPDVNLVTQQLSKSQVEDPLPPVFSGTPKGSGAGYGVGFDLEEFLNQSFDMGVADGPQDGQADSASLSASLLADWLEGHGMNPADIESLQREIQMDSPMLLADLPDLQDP
Chain of Rho-associated protein kinase 2 (O75116 whole entry): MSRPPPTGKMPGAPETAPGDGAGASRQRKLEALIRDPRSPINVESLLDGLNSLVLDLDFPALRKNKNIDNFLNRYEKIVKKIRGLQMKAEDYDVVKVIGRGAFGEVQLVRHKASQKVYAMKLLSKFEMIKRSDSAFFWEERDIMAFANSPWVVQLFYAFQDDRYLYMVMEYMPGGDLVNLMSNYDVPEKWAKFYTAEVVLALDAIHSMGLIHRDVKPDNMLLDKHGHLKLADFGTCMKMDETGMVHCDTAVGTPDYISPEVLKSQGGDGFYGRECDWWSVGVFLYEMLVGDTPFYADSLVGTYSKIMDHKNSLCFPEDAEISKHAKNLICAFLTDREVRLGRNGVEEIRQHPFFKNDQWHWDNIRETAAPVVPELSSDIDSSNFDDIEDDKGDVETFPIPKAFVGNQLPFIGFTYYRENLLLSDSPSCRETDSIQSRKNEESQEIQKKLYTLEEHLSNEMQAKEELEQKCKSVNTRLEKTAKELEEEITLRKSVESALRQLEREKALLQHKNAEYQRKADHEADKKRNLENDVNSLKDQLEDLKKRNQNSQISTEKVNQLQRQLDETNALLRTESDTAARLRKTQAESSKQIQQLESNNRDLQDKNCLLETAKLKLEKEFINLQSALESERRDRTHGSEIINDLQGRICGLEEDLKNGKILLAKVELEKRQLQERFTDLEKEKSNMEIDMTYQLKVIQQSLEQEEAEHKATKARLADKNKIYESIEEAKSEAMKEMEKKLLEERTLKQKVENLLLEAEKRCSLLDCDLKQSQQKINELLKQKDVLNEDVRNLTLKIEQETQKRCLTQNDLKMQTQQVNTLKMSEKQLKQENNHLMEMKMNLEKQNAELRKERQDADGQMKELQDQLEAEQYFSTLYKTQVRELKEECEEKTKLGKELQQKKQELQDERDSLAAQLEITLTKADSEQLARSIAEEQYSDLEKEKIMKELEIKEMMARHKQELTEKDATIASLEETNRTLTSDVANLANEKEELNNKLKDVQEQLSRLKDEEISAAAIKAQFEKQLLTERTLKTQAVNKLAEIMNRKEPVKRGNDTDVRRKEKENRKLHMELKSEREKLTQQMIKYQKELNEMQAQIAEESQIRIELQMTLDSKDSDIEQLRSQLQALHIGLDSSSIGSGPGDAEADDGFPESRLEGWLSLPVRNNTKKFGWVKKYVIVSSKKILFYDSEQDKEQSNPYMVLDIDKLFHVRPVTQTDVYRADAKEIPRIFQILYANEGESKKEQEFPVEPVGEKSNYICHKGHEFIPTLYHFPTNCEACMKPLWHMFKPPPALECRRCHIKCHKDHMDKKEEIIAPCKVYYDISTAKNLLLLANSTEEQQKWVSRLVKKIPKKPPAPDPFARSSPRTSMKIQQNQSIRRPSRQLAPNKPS

Row | Kd [1] | Kd [2] | Kd [3] | Kd [4] | Kd [5] | Kd [6] | Structure (SMILES)
1 | > 30 µM (inactive) | > 30 µM (inactive) | > 30 µM (inactive) | > 30 µM (inactive) | > 30 µM (inactive) | – | N[C@@H]1CCCN(c2c(/C=C3\SC(=O)NC3=O)cccc2-c2ccccc2)C1
2 | > 30 µM (inactive) | > 30 µM (inactive) | > 30 µM (inactive) | > 30 µM (inactive) | > 30 µM (inactive) | > 30 µM (inactive) | Cc1ccc(S(=O)(=O)Nc2nc3ccccc3nc2Nc2ccc3nsnc3c2)cc1
3 | > 30 µM (inactive) | > 30 µM (inactive) | > 30 µM (inactive) | > 30 µM (inactive) | > 30 µM (inactive) | > 30 µM (inactive) | CCN1CCN(Cc2ccc(-c3cc4c(N[C@H](C)c5ccccc5)ncnc4[nH]3)cc2)CC1 [AEE-788]
4 | – | > 30 µM (inactive) | 21.4 µM (active) | 4.73 µM (active) | > 30 µM (inactive) | > 30 µM (inactive) | Cn1ncc(Cl)c1-c1cc(C(=O)N[C@H](CN)Cc2cccc(F)c2)sc1Cl [AFURESERTIB]
5 | – | > 30 µM (inactive) | > 30 µM (inactive) | > 30 µM (inactive) | > 30 µM (inactive) | > 30 µM (inactive) | COc1cc(N2CCC(N3CCN(C)CC3)CC2)ccc1Nc1ncnc(Nc2ccccc2S(=O)(=O)C(C)C)n1 [ASP-3026]
6 | > 30 µM (inactive) | > 30 µM (inactive) | > 30 µM (inactive) | > 30 µM (inactive) | > 30 µM (inactive) | > 30 µM (inactive) | CNS(=O)(=O)Nc1nccc(Cc2c(C)c3ccc(Oc4ncccn4)cc3oc2=O)c1F [AVUTOMETINIB]
7 | > 30 µM (inactive) | > 30 µM (inactive) | > 30 µM (inactive) | > 30 µM (inactive) | > 30 µM (inactive) | > 30 µM (inactive) | COc1cc(CCc2cc(NC(=O)c3ccc(N4C[C@@H](C)N[C@@H](C)C4)cc3)n[nH]2)cc(OC)c1 [AZD-4547]
8 | > 30 µM (inactive) | > 30 µM (inactive) | > 30 µM (inactive) | – | – | > 30 µM (inactive) | Cc1nc(N)sc1-c1ccnc(Nc2ccc(N3CCOCC3)cc2)n1 [CYC-116]
9 | > 30 µM (inactive) | > 30 µM (inactive) | > 30 µM (inactive) | – | – | – | CN1CCN(c2ccc3nc(-c4c(N)c5c(F)cccc5[nH]c4=O)[nH]c3c2)CC1 [DOVITINIB]
10 | > 30 µM (inactive) | > 30 µM (inactive) | > 30 µM (inactive) | – | – | > 30 µM (inactive) | Cc1cc(Nc2cc(N3CCN(C)CC3)nc(/C=C/c3ccccc3)n2)n[nH]1 [ENMD-2076]
11 | – | > 30 µM (inactive) | 0.566 µM (active) | – | – | – | CCn1c(-c2nonc2N)nc2c(C#CC(C)(C)O)ncc(OC[C@H]3CCCNC3)c21 [GSK-690693]
12 | – | > 30 µM (inactive) | 0.934 µM (active) | > 30 µM (inactive) | 1.52 µM (active) | – | C1=C/COCc2cc(ccc2OCCN2CCCC2)Nc2nccc(n2)-c2cccc(c2)COC/1 [PACRITINIB]
13 | > 30 µM (inactive) | > 30 µM (inactive) | > 30 µM (inactive) | – | > 30 µM (inactive) | > 30 µM (inactive) | CNC(=O)c1ccc(C)c(-n2c(C)cc(OCc3ccc(F)cc3F)c(Br)c2=O)c1 [PH-797804]
14 | – | > 30 µM (inactive) | > 30 µM (inactive) | > 30 µM (inactive) | > 30 µM (inactive) | > 30 µM (inactive) | CN(C)C(=O)c1cc2cnc(Nc3ccc(N4CCNCC4)cn3)nc2n1C1CCCC1 [RIBOCICLIB]
15 | – | > 30 µM (inactive) | > 30 µM (inactive) | > 30 µM (inactive) | > 30 µM (inactive) | > 30 µM (inactive) | C[C@@H](c1ccc2nccn2c1)n1nnc2ncc(-c3cnn(C)c3)nc21 [SAVOLITINIB]
16 | > 30 µM (inactive) | > 30 µM (inactive) | > 30 µM (inactive) | – | – | – | Nc1nc(N)c2nc(-c3cccc(O)c3)c(-c3cccc(O)c3)nc2n1 [TG100-115]
17 | – | > 30 µM (inactive) | > 30 µM (inactive) | > 30 µM (inactive) | > 30 µM (inactive) | > 30 µM (inactive) | O=c1sn(-c2cccc3ccccc23)c(=O)n1Cc1ccccc1 [TIDEGLUSIB]
18 | – | > 30 µM (inactive) | > 30 µM (inactive) | 3.97 µM (active) | > 30 µM (inactive) | > 30 µM (inactive) | O=C(Nc1ccc(-c2ccnc(Nc3ccc(N4CCOCC4)cc3)n2)cc1)C1CCCN1 (stereo unspecified) [XL-019]

Row | Structure (SMILES) | Kd [1] | Kd [2] | Kd [3] | Kd [4] | Kd [5] | Kd [6]
19 | CN1CC[C@@H](c2c(O)cc(O)c3c(=O)cc(-c4ccccc4Cl)oc23)[C@@H]1CO | – | > 30 µM (inactive) | > 30 µM (inactive) | > 30 µM (inactive) | > 30 µM (inactive) | > 30 µM (inactive)
20 | Cc1cc(-c2cc(O)ccc2Cl)cc2nnc(Nc3ccc(OCCN4CCCC4)cc3)nc12 | > 30 µM (inactive) | > 30 µM (inactive) | > 30 µM (inactive) | > 30 µM (inactive) | > 30 µM (inactive) | > 30 µM (inactive)
21 | COC(=O)[C@@]1(O)C[C@H]2O[C@]1(C)n1c3ccccc3c3c4c(c5c6ccccc6n2c5c31)C(=O)NC4 [K-252A] | > 30 µM (inactive) | > 30 µM (inactive) | – | > 30 µM (inactive) | > 30 µM (inactive) | > 30 µM (inactive)
22 | Cc1cn(-c2cc(NC(=O)c3ccc(C)c(Nc4nccc(-c5cccnc5)n4)c3)cc(C(F)(F)F)c2)cn1 [NILOTINIB] | > 30 µM (inactive) | > 30 µM (inactive) | > 30 µM (inactive) | – | – | –
23 | Cc1ccc(-n2nc(C(C)(C)C)cc2NC(=O)NCc2cc(F)ccc2Oc2ccc3c(cnn3CCO)c2)cc1 [PEXMETINIB] | – | > 30 µM (inactive) | > 30 µM (inactive) | > 30 µM (inactive) | > 30 µM (inactive) | > 30 µM (inactive)
24 | C=CC(=O)N1CCC(Oc2cc3c(Nc4ccc(Cl)c(Cl)c4F)ncnc3cc2OC)CC1 [POZIOTINIB] | – | > 30 µM (inactive) | > 30 µM (inactive) | > 30 µM (inactive) | > 30 µM (inactive) | > 30 µM (inactive)
25 | O=C(Nc1cccc(Cl)c1)Nc1ncc(CCNc2ncnc3ccsc23)s1 [SNS-314] | > 30 µM (inactive) | > 30 µM (inactive) | > 30 µM (inactive) | – | – | –
